Literature values, collected in US20250313559A1 (Bayer Aktiengesellschaft, priority 2024, published 2025).
Entries after “also recorded” stand apart in the source; their conditions may differ.

Key:
[1] = test system: patients with HF and LVEF 35%; conditions: EMPHASIS-HF; HFrEF; cited from earlier work
patients with HFpEF = conditions: TOPCAT, global trial; cited from earlier work
[2] = test system: patients with HF and LVEF 45%; conditions: TOPCAT; HFmrEF/HFpEF; cited from earlier work
[3] = test system: patients with HF and left ventricular ejection fraction (LVEF) 35%; conditions: RALES; HFrEF; cited from earlier work

Structure (SMILES) | Risk of death and hospitalization [1] | primary composite endpoint (patients with HFpEF) | Primary endpoint (first heart failure hospitalization or cardiovascular death) [2] | Risk of death and hospitalization [3]
COC(=O)[C@@H]1CC2=CC(=O)CC[C@]2(C)[C@@]23O[C@@H]2C[C@@]2(C)[C@@H](CC[C@@]24CCC(=O)O4)[C@H]13 [eplerenone] | decrease the risk of death and hospitalization | – | – | –
CC(=O)S[C@@H]1CC2=CC(=O)CC[C@]2(C)[C@H]2CC[C@@]3(C)[C@@H](CC[C@@]34CCC(=O)O4)[C@H]12 [spironolactone] | – | did not reduce the primary endpoint; also recorded: did not demonstrate benefit | did not reduce the primary endpoint; also recorded: did not improve the primary outcome | decrease the risk of death and hospitalization
